Data taken from patent US11535643B2, “Macrolides with modified desosamine sugars and uses thereof” (President and Fellows of Harvard College, priority 2015, dated 2022).
Read-outs that look alike come from different tables or passages of the source.

Tests used:
Assay type in all cases: cell-based
S. aureus = test: Broth dilution MIC determination (CLSI) against S. aureus strains; settings: Staphylococcus aureus
Outline: (§1)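 Following CLSI procedures, broth dilution is used to find the MIC for each strain. Controls: azithromycin and solithromycin.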

S. pneumoniae = test: Broth dilution MIC determination (CLSI) against S. pneumoniae strains; settings: Streptococcus pneumoniae
Outline: as §1

S. pyogenes = test: Broth dilution MIC determination (CLSI) against S. pyogenes strains; settings: Streptococcus pyogenes
Outline: as §1

E. faecalis = test: Broth dilution MIC determination (CLSI) against E. faecalis strains; settings: Enterococcus faecalis
Outline: as §1

E. coli = test: Broth dilution MIC determination (CLSI) against E. coli strains; settings: Escherichia coli
Outline: as §1

A. baumannii = test: Broth dilution MIC determination (CLSI) against A. baumannii strains; settings: Acinetobacter baumannii
Outline: as §1

K. pneumoniae = test: Broth dilution MIC determination (CLSI) against K. pneumoniae strains; settings: Klebsiella pneumoniae
Outline: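 Azithromycin and solithromycin served as controls; MICs were obtained by standard CLSI broth dilution on a strain panel including multidrug-resistant and macrolide-resistant isolates.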

P. aeruginosa = test: Broth dilution MIC determination (CLSI) against P. aeruginosa strains; settings: Pseudomonas aeruginosa
Outline: as §1

H. influenzae = test: Broth dilution MIC determination (CLSI) against H. influenzae strains; settings: Haemophilus influenzae
From the text: Minimum inhibitory concentrations (MICs) for macrolides described herein have been determined for unique strains of S. aureus, S. pneumoniae, S. pyogenes, E. faecalis, E. coli, A. baumannii, K. pneumoniae, P. aeruginosa, and H. influenzae, including several multidrug-resistant strains, with a special focus on macrolide resistant mechanisms. Azithromycin and solithromycin were included as control compounds. CLSI standard procedures for broth dilution MIC determination were used. Data for exemplary compounds described herein is shown in Tables M1-M7 and in Tables N1-N4.

[1] = ATCC29213, ATCC29213, read-out: MIC S. aureus ATCC29213
[2] = MRSA / USA100, MRSA: USA100, read-out: MIC S. aureus MRSA: USA100
[3] = MRSA / USA300, MRSA: USA300, read-out: MIC S. aureus MRSA: USA300
[4] = USA600, USA600, GISA, read-out: MIC S. aureus USA600, GISA
[5] = read-out: MIC S. aureus erm A genotype
[6] = ATCC49619, ATCC49619, read-out: MIC S. pneumoniae ATCC49619
[7] = erm B + mef A genotype, read-out: MIC S. pneumoniae erm B + mef A genotype
[8] = erm B + tet(M, O) genotype, read-out: MIC S. pneumoniae erm B + tet(M, O) genotype
[9] = read-out: MIC S. pneumoniae mef A genotype, mef A genotype
[10] = read-out: MIC S. pneumoniae mef A genotype, mef A genotype, first of two such columns (c3)
[11] = ATCC19615, ATCC19615, read-out: MIC S. pyogenes ATCC19615
[12] = macrolide-resistant, read-out: MIC S. pyogenes macrolide-resistant
[13] = ATCC29212, ATCC29212, read-out: MIC E. faecalis ATCC29212
[14] = Vancomycin-resistant, read-out: MIC E. faecalis Vancomycin-resistant
[15] = ATCC25922, ATCC25922, read-out: MIC E. coli ATCC25922
[16] = read-out: MIC E. coli CTX-M-14, CTX-M-14
[17] = read-out: MIC E. coli NDM-1, NDM-1
[18] = read-out: MIC E. coli TEM-1, TEM-1
[19] = ATCC19606, ATCC19606, read-out: MIC A. baumannii ATCC19606
[20] = IMP-4, read-out: MIC A. baumannii IMP-4
[21] = chromosomal class C, read-out: MIC A. baumannii chromosomal class C
[22] = imipenem-resistant, read-out: MIC A. baumannii imipenem-resistant
[23] = ATCC10031, ATCC10031, read-out: MIC K. pneumoniae ATCC10031
[24] = KPC-2, read-out: MIC K. pneumoniae KPC-2
[25] = SHV-12, read-out: MIC K. pneumoniae SHV-12
[26] = TEM-10, read-out: MIC K. pneumoniae TEM-10
[27] = ATCC27853, read-out: MIC P. aeruginosa ATCC27853
[28] = read-out: MIC P. aeruginosa HPA101-1477
[29] = ATCC49247, ATCC49247, read-out: MIC H. influenzae ATCC49247
[30] = erythro > 4, azithro 1, read-out: MIC H. influenzae erythro > 4, azithro 1

Measured: MIC

CC[C@H]1OC(=O)[C@H](C)C(=O)[C@H](C)[C@@H](O[C@@H]2OC(CNC(=O)c3ccccn3)CC(N(C)C)C2O)[C@](C)(OC)C[C@@H](C)CN[C@H](C)[C@H]2N(CCCCn3cc(-c4cccc(N)c4)nn3)C(=O)O[C@]12C (stereo partly shown) [FSM-21887]
32 µg/mL: E. coli; [17] | A. baumannii; [19] | A. baumannii; [21] | A. baumannii; [22]
8 µg/mL: S. aureus; [1] | K. pneumoniae; [23]
1 µg/mL: S. pneumoniae; [7] | S. pyogenes; [12]
2 µg/mL: H. influenzae; [29] | H. influenzae; [30]
≤ 0.0312 µg/mL: S. pneumoniae; [6] | S. pneumoniae; [8] | S. pyogenes; [11]
0.5 µg/mL: S. pneumoniae; [9] | E. faecalis; [13]
0.0625 µg/mL: S. pneumoniae; [10]
> 32 µg/mL: S. aureus; [2] | S. aureus; [3] | S. aureus; [4] | S. aureus; [5] | E. faecalis; [14] | E. coli; [16] | A. baumannii; [20] | K. pneumoniae; [24] | K. pneumoniae; [25] | P. aeruginosa; [27] | P. aeruginosa; [28]
16 µg/mL: E. coli; [15] | E. coli; [18] | K. pneumoniae; [26]

CC[C@H]1OC(=O)[C@H](C)C(=O)[C@H](C)[C@@H](O[C@@H]2OC(CNC(=O)c3cc[nH]n3)CC(N(C)C)C2O)[C@](C)(OC)C[C@@H](C)CN[C@H](C)[C@H]2N(CCCCn3cc(-c4cccc(N)c4)nn3)C(=O)O[C@]12C (stereo partly shown) [FSM-21888]
< 0.0313 µg/mL: S. pneumoniae; [6] | S. pneumoniae; [8] | S. pyogenes; [11]
4 µg/mL: E. faecalis; [13]
8 µg/mL: K. pneumoniae; [23] | H. influenzae; [29] | H. influenzae; [30]
32 µg/mL: S. aureus; [1] | E. coli; [15]
> 32 µg/mL: S. aureus; [2] | S. aureus; [3] | S. aureus; [4] | S. aureus; [5] | E. faecalis; [14] | E. coli; [17] | A. baumannii; [19] | A. baumannii; [22] | K. pneumoniae; [24] | P. aeruginosa; [27]
0.25 µg/mL: S. pneumoniae; [10]
2 µg/mL: S. pneumoniae; [7]
1 µg/mL: S. pyogenes; [12]

CC[C@H]1OC(=O)[C@H](C)C(=O)[C@H](C)[C@@H](O[C@@H]2OC(CN(C)C)CC(N(C)C)C2O)[C@](C)(OC)C[C@@H](C)CN(C)[C@H](C)[C@H]2N(CCCCn3cc(-c4cccc(N)c4)nn3)C(=O)O[C@]12C (stereo partly shown) [FSM-22003]
> 32 µg/mL: S. aureus; [2] | S. aureus; [3] | S. aureus; [4] | S. aureus; [5] | E. faecalis; [14] | E. coli; [15] | E. coli; [16] | E. coli; [17] | A. baumannii; [19] | A. baumannii; [20] | A. baumannii; [21] | A. baumannii; [22] | K. pneumoniae; [24] | K. pneumoniae; [25] | K. pneumoniae; [26] | P. aeruginosa; [27] | P. aeruginosa; [28]
0.0625 µg/mL: S. pneumoniae; [10]
≤ 0.0312 µg/mL: S. pneumoniae; [6] | S. pneumoniae; [8] | S. pyogenes; [11]
4 µg/mL: E. faecalis; [13] | H. influenzae; [30]
32 µg/mL: S. pneumoniae; [7] | E. coli; [18]
2 µg/mL: S. pyogenes; [12]
0.5 µg/mL: S. pneumoniae; [9]
8 µg/mL: S. aureus; [1] | K. pneumoniae; [23] | H. influenzae; [29]
